Tests used:
[1] = target: Cyclin-dependent kinase 4 (Homo sapiens, UniProt P11802); experiment: Inhibition of Cyclin dependent kinase 4
Cell line = experiment: inhibitory concentration for anti-proliferative activity against A549 and […] human tumor cell lines was determined; type: functional, cell-based
[2] = target: Cyclin-dependent kinase 2 (Homo sapiens, UniProt P24941); experiment: Inhibition of Cyclin dependent kinase 2

Chain of Cyclin-dependent kinase 4 (P11802 whole entry): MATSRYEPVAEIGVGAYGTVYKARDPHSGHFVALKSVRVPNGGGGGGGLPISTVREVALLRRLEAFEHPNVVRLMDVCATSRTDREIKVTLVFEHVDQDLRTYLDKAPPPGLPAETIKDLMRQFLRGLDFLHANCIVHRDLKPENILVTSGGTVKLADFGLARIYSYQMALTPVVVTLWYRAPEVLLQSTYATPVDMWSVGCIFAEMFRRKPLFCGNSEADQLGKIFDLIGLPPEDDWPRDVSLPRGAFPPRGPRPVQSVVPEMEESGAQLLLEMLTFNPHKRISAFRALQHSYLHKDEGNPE

Row | Compound | Ki [1] [nM] | Ki [2] [nM] | IC50 (Cell line) [nM]
1 | Cc1[nH]c(C#N)c(C)c1-c1ccnc(Nc2cccc(O)c2)n1 | – | 30 | 1840
2 | Cc1c[nH]c(C)c1-c1ccnc(Nc2cccc([N+](=O)[O-])c2)n1 | 4170 | – | –
3 | Cc1[nH]c(C#N)c(C)c1-c1ccnc(Nc2ccc(O)cc2)n1 | – | – | 1360
4 | Cc1ccc(Nc2nccc(-c3c(C)[nH]c(C#N)c3C)n2)cc1[N+](=O)[O-] | – | – | 380
5 | Cc1ccc(Nc2nccc(-c3c(C)[nH]c(C#N)c3C)n2)cc1O | – | – | 1170
6 | Cc1[nH]c(C#N)c(C)c1-c1ccnc(Nc2cccc([N+](=O)[O-])c2)n1 | – | – | 360

Second part, led by results:

Row | Ki [1] [nM] | Ki [2] [nM] | Compound | IC50 (Cell line) [nM]
7 | 120 | – | Cc1[nH]c([N+](=O)[O-])c(C)c1-c1ccnc(Nc2ccc(F)cc2)n1 | 3120
8 | – | 270 | Cc1[nH]c(Br)c(C)c1-c1ccnc(Nc2ccc(F)cc2)n1 | 16000
9 | – | 100 | Cc1[nH]c(C#N)c(C)c1-c1ccnc(Nc2ccc(F)cc2)n1 | 2440
10 | 300 | – | Cc1cc(Nc2nccc(-c3c(C)[nH]c(C#N)c3C)n2)ccc1F | 890
11 | – | 360 | Cc1[nH]c(Cl)c(C)c1-c1ccnc(Nc2ccc(F)cc2)n1 | 13000
12 | 420 | – | Cc1[nH]c(C(N)=O)c(C)c1-c1ccnc(Nc2ccc(F)cc2)n1 | 1640

Reference: ChEMBL document CHEMBL1137157, “Synthesis and biological activity of 2-anilino-4-(1H-pyrrol-3-yl) pyrimidine CDK inhibitors” (Bioorg Med Chem Lett, 2004)
